As usually defined, the IC50 is the midpoint of a concentration-inhibition curve.

Here are results for one compound from PMC8416565 (Oncotarget, 2021).

For this assay, the target named is T1, MAP2K7 (Homo sapiens, UniProt O14733).
T1 construct: purified human MAP2K7 (Origene)
T1 sequence (O14733 2-419): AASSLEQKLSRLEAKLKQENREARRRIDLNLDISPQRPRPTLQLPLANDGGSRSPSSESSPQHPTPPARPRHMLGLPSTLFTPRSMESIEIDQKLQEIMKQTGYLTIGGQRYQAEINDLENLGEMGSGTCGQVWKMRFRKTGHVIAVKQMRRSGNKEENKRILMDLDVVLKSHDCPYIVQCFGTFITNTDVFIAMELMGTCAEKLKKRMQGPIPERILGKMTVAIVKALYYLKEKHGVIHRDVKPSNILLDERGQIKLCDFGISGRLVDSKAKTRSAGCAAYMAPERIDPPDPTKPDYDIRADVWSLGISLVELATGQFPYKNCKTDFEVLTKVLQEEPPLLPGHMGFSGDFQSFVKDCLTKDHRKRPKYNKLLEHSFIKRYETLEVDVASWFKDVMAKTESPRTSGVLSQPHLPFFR
Nature of the assay: in vitro kinase assay (Kinase-Glo Plus / ADP-Glo), dead JNK2 substrate, 30-min preincubation. It is filed as biochemical. A general note: Kinase-Glo measures the ATP left after a reaction by luminescence.

For the compound `COc1cc(O)c2c(c1)/C=C/C[C@H](O)[C@H](O)C(=O)/C=C\C[C@H](C)OC2=O` [5Z7O, 5Z-7-oxozeaenol], the half-inhibitory concentration (IC50) came out at 1200 nM.
